In general, inhibition refers to how much of the control response was suppressed.

Molecules are shown by their SMILES.

A short description of series [1]: Immunosuppressive activity in Balb/c mouse B cells assessed as inhibition of LPS-induced cell proliferation at 100 uM after 48 hrs by MTT assay relative to control. The series is classed as functional.
Series [2] in a line: Immunosuppressive activity in Balb/c mouse T cells assessed as inhibition of ConA-induced cell proliferation at 1 uM after 48 hrs by MTT assay relative to control. Type of series: functional.
Series [3] is filed under the species Mus musculus. The experiment in a line: Cytotoxicity against Balb/c mouse B cells assessed as decrease in cell viability at 1 uM after 48 hrs by MTT assay. The series is classed as toxicity, cell-based.
The next series relates to B. As to the kind of experiment: Immunosuppressive activity in Balb/c mouse B cells assessed as inhibition of LPS-induced cell proliferation after 48 hrs by MTT assay relative to control. The series is classed as functional, cell-based.
For series [4], the species on record is Mus musculus. As to the kind of experiment: Cytotoxicity against Balb/c mouse B cells assessed as decrease in cell viability at 100 uM after 48 hrs by MTT assay. The series is classed as toxicity, cell-based. A general note: Tetrazolium assays rely on reduction of a dye to a coloured formazan, in cell work by metabolically active cells.
In a further series the test system is T-cell. The experiment in a line: Immunosuppressive activity in Balb/c mouse T cells assessed as inhibition of ConA-induced cell proliferation after 48 hrs by MTT assay relative to control. The series is classed as functional, cell-based.
For series [5], the species on record is Mus musculus. As to the kind of experiment: Cytotoxicity against Balb/c mouse T cells assessed as decrease in cell viability at 10 uM after 48 hrs by MTT assay. The series is classed as toxicity, cell-based.
Series [6] can be described thus: Immunosuppressive activity in Balb/c mouse B cells assessed as inhibition of LPS-induced cell proliferation at 10 uM after 48 hrs by MTT assay relative to control. The series is classed as functional.
The species named for series [7] is Mus musculus. As to the kind of experiment: Cytotoxicity against Balb/c mouse T cells assessed as decrease in cell viability at 1 uM after 48 hrs by MTT assay. The series is classed as toxicity, cell-based.
The nature of series [8]: Immunosuppressive activity in Balb/c mouse T cells assessed as inhibition of ConA-induced cell proliferation at 100 uM after 48 hrs by MTT assay relative to control. The series is classed as functional.
Series [9] in a line: Immunosuppressive activity in Balb/c mouse T cells assessed as inhibition of ConA-induced cell proliferation at 10 uM after 48 hrs by MTT assay relative to control. The series is classed as functional.
The species entered for series [10] is Mus musculus. As to the kind of experiment: Cytotoxicity against Balb/c mouse B cells assessed as decrease in cell viability at 10 uM after 48 hrs by MTT assay. Type of series: toxicity, cell-based.
A short description of series [11]: Immunosuppressive activity in Balb/c mouse B cells assessed as inhibition of LPS-induced cell proliferation at 1 uM after 48 hrs by MTT assay relative to control. Type of series: functional.
For series [12], the species on record is Mus musculus. The experiment in a line: Cytotoxicity against Balb/c mouse T cells assessed as decrease in cell viability at 100 uM after 48 hrs by MTT assay. Type of series: toxicity, cell-based.

With `COc1cc(-n2cc(COC(=O)[C@H](C)[C@@H]3CCc4c(C)cc(OC(C)=O)c(C)c4C3)nn2)cc(OC)c1OC`, the inhibition at 100 µM in series [1] amounted to 89.3%; in series [8] it was 83.3%. The inhibition at 1 µM in series [2] is 45.5%; in series [11], 42%. Besides, the Activity result in the series filed under Mus musculus [3] is “Toxic”; in the series filed under Mus musculus [4], “Non-Toxic”; in the series filed under Mus musculus [5], “Toxic”; in the series listed under Mus musculus [7], “Toxic”; in the series listed under Mus musculus [10], “Toxic”; in the series filed under Mus musculus [12], “Non-Toxic”. The inhibition entry with B and in the series with T-cell was “Dose-dependent effect” each time. For the same compound, the results for the inhibition at 10 µM in series [6] and in [9] were 22.1% and 37.1%, respectively.

Consider `CC(=O)Oc1cc(C)c2c(c1C)C[C@H]([C@@H](C)C(=O)OCc1cn(-c3ccc(C(=O)c4ccccc4)cc3)nn1)CC2`, for which the values for the inhibition at 100 µM in series [1] and in series [8] were 81.2% and 20%, respectively. The inhibition at 1 µM in [2] was found to be 5.33%; in series [11], 69.3%. Further, the Activity entry is reported as “Non-Toxic” in the series listed under Mus musculus [3]; “Toxic” in the series listed under Mus musculus [4]; “Toxic” in the series filed under Mus musculus [5]; “Non-Toxic” in the series filed under Mus musculus [7]; “Toxic” in the series listed under Mus musculus [10]; “Toxic” in the series listed under Mus musculus [12]. Also, the inhibition entry in the series on B and with T-cell was “Dose-dependent effect” in each case. Moreover, the inhibition at 10 µM was found to be 75% in series [6] and 28% in [9].

Regarding `CC(=O)Oc1cc(C)c2c(c1C)C[C@H]([C@@H](C)C(=O)OCc1cn(-c3ccc(C#N)cc3)nn1)CC2`, the inhibition at 100 µM in series [1] is 67.9%; in series [8] it was 59.8%. The inhibition at 1 µM came to 35.6% in [2] and 76.3% in [11]. Further, the Activity entry in the series filed under Mus musculus [3], in the series listed under Mus musculus [4], in the series listed under Mus musculus [5], in the series filed under Mus musculus [7], in the series listed under Mus musculus [10] and in the series filed under Mus musculus [12] was “Toxic” each time. For the same compound, the inhibition entry in the series with B and with T-cell was “Dose-dependent effect” in each case. The inhibition at 10 µM in series [6] came out at 80.9%; in [9] it was 52.3%.

In the case of `CC(=O)Oc1cc(C)c2c(c1C)C[C@H]([C@@H](C)C(=O)OCc1cn(-c3ccc(O)cc3)nn1)CC2`, the inhibition at 100 µM in series [1] amounted to 29.7%; in series [8], 17.6%. Moreover, the inhibition at 1 µM in [2] came out at 33.3%; in [11] it was 36.6%. Further, the Activity result was “Non-Toxic” in the series filed under Mus musculus [3]; “Toxic” in the series listed under Mus musculus [4]; “Toxic” in the series listed under Mus musculus [5]; “Non-Toxic” in the series filed under Mus musculus [7]; “Toxic” in the series filed under Mus musculus [10]; “Toxic” in the series listed under Mus musculus [12]. The inhibition result in the series with B and in the series on T-cell was “Dose-dependent effect” throughout. In addition, the inhibition at 10 µM in series [6] turned out to be 26.3%; in series [9], 5.55%.

In the case of `CC(=O)Oc1cc(C)c2c(c1C)C[C@H]([C@@H](C)C(=O)OCc1cn(-c3ccc(CC#N)cc3)nn1)CC2`, the inhibition at 100 µM in series [1] was 65.6%; in [8], 68.9%. Besides, the inhibition at 1 µM in series [2] came out at 21.2%; in [11], 59.5%. In addition, the Activity entry in the series listed under Mus musculus [3], in the series listed under Mus musculus [4], in the series listed under Mus musculus [5], in the series filed under Mus musculus [7], in the series listed under Mus musculus [10] and in the series filed under Mus musculus [12] was “Toxic” each time. The inhibition result in the series on B and in the series with T-cell was “Dose-dependent effect” each time. Moreover, the inhibition at 10 µM in [6] was determined as 58.8%; in series [9] it was 47%.

With `CC(=O)Oc1cc(C)c2c(c1C)C[C@H]([C@@H](C)C(=O)OCc1cn(-c3ccccc3F)nn1)CC2`, the inhibition at 100 µM in series [1] was determined as 39.6%; in series [8], 5.88%. Also, the inhibition at 1 µM in series [2] came out at 53.7%; in series [11], 50.5%. In addition, the Activity result in the series listed under Mus musculus [3], in the series listed under Mus musculus [4], in the series filed under Mus musculus [5], in the series filed under Mus musculus [7], in the series listed under Mus musculus [10] and in the series filed under Mus musculus [12] was “Non-Toxic” in each case. The inhibition entry in the series on B and in the series with T-cell was “Dose-dependent effect” throughout. In addition, the figures for the inhibition at 10 µM in series [6] and in series [9] were 34.6% and 11.8%, respectively.

Consider `CC(=O)Oc1cc(C)c2c(c1C)C[C@H]([C@@H](C)C(=O)OCc1cn(Cc3ccccc3)nn1)CC2`, for which the inhibition at 100 µM amounted to 32.3% in series [1] and 44% in series [8]. Moreover, the inhibition at 1 µM in series [2] was 33%; in [11], 48.6%. For the same compound, the Activity entry is listed as “Non-Toxic” in the series listed under Mus musculus [3]; “Toxic” in the series filed under Mus musculus [4]; “Non-Toxic” in the series listed under Mus musculus [5]; “Non-Toxic” in the series filed under Mus musculus [7]; “Non-Toxic” in the series filed under Mus musculus [10]; “Toxic” in the series filed under Mus musculus [12]. Further, the inhibition entry with B and in the series with T-cell was “Dose-dependent effect” in each case. Besides, the inhibition at 10 µM in [6] amounted to 33.5%; in series [9] it was 39.2%.

On to `C#CCOC(=O)[C@H](C)[C@@H]1CCc2c(C)cc(OC(C)=O)c(C)c2C1`, for which the inhibition at 100 µM in [1] amounted to 69.7%; in series [8], 71.5%. Further, the figures for the inhibition at 1 µM in series [2] and in [11] were 41.7% and 57.8%, respectively. Further, the Activity entry is given as “Non-Toxic” in the series filed under Mus musculus [3]; “Non-Toxic” in the series listed under Mus musculus [4]; “Toxic” in the series filed under Mus musculus [5]; “Non-Toxic” in the series listed under Mus musculus [7]; “Toxic” in the series listed under Mus musculus [10]; “Non-Toxic” in the series listed under Mus musculus [12]. For the same compound, the inhibition entry with B and with T-cell was “Dose-dependent effect” each time. Moreover, the inhibition at 10 µM in series [6] was found to be 59.3%; in series [9], 51.2%.

In the case of `CC(=O)Oc1cc(C)c2c(c1C)C[C@H]([C@@H](C)C(=O)OCc1cn(-c3cccc([N+](=O)[O-])c3)nn1)CC2`, the inhibition at 100 µM came out at 24.6% in series [1] and 10.2% in [8]. In addition, the inhibition at 1 µM stood at 45.4% in series [2] and 29.1% in [11]. Also, the Activity entry was “Toxic” in the series listed under Mus musculus [3]; “Non-Toxic” in the series filed under Mus musculus [4]; “Toxic” in the series listed under Mus musculus [5]; “Toxic” in the series listed under Mus musculus [7]; “Toxic” in the series filed under Mus musculus [10]; “Non-Toxic” in the series listed under Mus musculus [12]. Further, the inhibition entry with B and with T-cell was “Dose-dependent effect” in each case. Moreover, the inhibition at 10 µM in [6] amounted to 26.9%; in [9] it was 30.6%.
